Measurements reported in ChEMBL document CHEMBL2429842, “Phthaloyl amino acids as anti-inflammatory and immunomodulatory prototypes” (Med Chem Res, 2013).
Calls of active or inactive are those of the source. The calls are words filed in the database; no cut-off is given here.

Assays:
Splenocyte [1] = test: Immunomodulatory activity in BALB/c mouse splenocytes assessed as inhibition of LPS-induced nitric oxide production at 50 ug/ml after 72 hrs by Griess method relative to control; format: functional
Mus musculus [2] = test: Antiinflammatory activity in carrageenan-induced air pouch mouse model assessed as inhibition of leukocyte migration from blood circulation into air pouches at 100 mg/kg, po administered 1 hr before carrageenan challenge measured after 6 hrs relative to control; format: functional
[3] = Cytotoxicity against BALB/c mouse splenocytes assessed as cell viability after 24 hrs by [3H]-thymidine incorporation assay; format: cell-based, Splenocyte; set-up: concentration or dose not given beside the values; details: read-out: Activity
MDA-MB-435 = test: Antiproliferative activity against human MDA-MB-435 cells at 25 ug/ml after 48 hrs by MTT assay; format: functional; details: MDA-MB-435, 48 h
HCT-8 = test: Antiproliferative activity against human HCT8 cells at 25 ug/ml after 48 hrs by MTT assay; format: functional; details: HCT-8, 48 h
[4] = Cytotoxicity against BALB/c mouse splenocytes assessed as highest nontoxic concentration after 24 hrs by [3H]-thymidine incorporation assay; format: cell-based, Splenocyte; details: read-out: Activity
Splenocyte [5] = test: Immunomodulatory activity in BALB/c mouse splenocytes assessed as inhibition of LPS-induced nitric oxide production at 25 ug/ml after 72 hrs by Griess method relative to control; format: functional
SF-295 = test: Antiproliferative activity against human SF295 cells at 25 ug/ml after 48 hrs by MTT assay; format: functional; details: SF-295, 48 h
Mus musculus [6] = test: Antiinflammatory activity in carrageenan-induced air pouch mouse model assessed as inhibition of leukocyte migration from blood circulation into air pouches at 10 mg/kg, po administered 1 hr before carrageenan challenge measured after 6 hrs relative to control; format: functional
[7] = tested on: Peritoneal macrophage cell; test: Immunomodulatory activity mouse peritoneal macrophages assessed as inhibition of LPS-induced IL-1beta production at 50 uM after 24 hrs by ELISA; format: functional, cell-based
[8] = tested on: Peritoneal macrophage cell; test: Immunomodulatory activity mouse peritoneal macrophages assessed as inhibition of LPS-induced TNFalpha production at 50 uM after 24 hrs by ELISA; format: functional, cell-based
Mus musculus [9] = test: Immunomodulatory activity in carrageenan-induced air pouch mouse model assessed as reduction of nitric oxide production in air pouch at 10 mg/kg, po by Griess method; format: functional, organism-based; set-up: dose 10 mg/kg

Row | SMILES | Activity (Splenocyte [1]) [µg/mL] | inhibition in vivo at 100 mg/kg (Mus musculus [2]) [%] | viability at 24 h [3] [%] | inhibition at 25 µg/mL (MDA-MB-435) [%] | inhibition at 25 µg/mL (HCT-8) [%] | MNTC at 24 h [4] [µg/mL] | Activity (Splenocyte [5]) [µg/mL] | inhibition at 25 µg/mL (SF-295) [%] | inhibition in vivo at 10 mg/kg (Mus musculus [6]) [%] | inhibition [7] | inhibition [8] | Activity (Mus musculus [9])
1 | O=C(O)CCN1C(=O)c2ccccc2C1=O | 4.4 | 54.2 | 22.2 | -3.71 | 18.9 | 50 | 3.6 | 12.6 |  |  |  | 
2 | COc1cccc2c1C(=O)c1c(O)c3c(c(O)c1C2=O)C[C@@](O)(C(=O)CO)C[C@@H]3O[C@H]1C[C@H](N)[C@H](O)[C@H](C)O1 [DOXORUBICIN] |  |  |  | 94.6 | 97.1 |  |  | 81.4 |  |  |  | 
3 | O=C(O)CC[C@@H](C(=O)O)N1C(=O)c2ccccc2C1=O | 3.4 | 61.7 | 8.75 | 12.9 | 6.52 | 50 | 2.9 | 14.4 |  |  |  | 
4 | CC[C@H](C)[C@@H](C(=O)O)N1C(=O)c2ccccc2C1=O | 2.3 | 67.5 | 26.1 | 14.9 | 15 | 12.5 | 3.1 | 20 | 64.7 |  |  | 
5 | CC(C)[C@@H](C(=O)O)N1C(=O)c2ccccc2C1=O | 2.7 | 57.8 | 24.7 | 7.82 | 4.28 | 25 | 6.4 | 2.74 |  |  |  | 
6 | O=C(O)CN1C(=O)c2ccccc2C1=O | 3.6 | 47.7 | 25.6 | -4.72 | -0.61 | 50 | 4.2 | 3.98 |  | Active | Active | 
7 | O=C1CCC(N2C(=O)c3ccccc3C2=O)C(=O)N1 (centres undefined) [THALIDOMIDE] | 3.6 | 72.1 |  |  |  | > 100 | 3.6 |  | 76.3 |  |  | Active
8 | O=C(O)[C@H](Cc1ccccc1)N1C(=O)c2ccccc2C1=O | 0.7 | 64.2 | 21.5 | 11.7 | -7.23 | 25 | 2.3 | 13.5 |  | Active |  | 
9 | O=C(O)[C@H](Cc1c[nH]c2ccccc12)N1C(=O)c2ccccc2C1=O | 2.1 | 43.8 | 27.6 | 13.8 | 10.4 | 50 | 1.3 | 24.5 |  | Active | Active | Active
10 | C[C@@H](C(=O)O)N1C(=O)c2ccccc2C1=O | 1.5 | 38.4 |  | 5.01 | 6.11 | > 100 | 2.1 | 12.2 |  |  |  | 
